Values of other authors, collected in patent US6107296A, “Neuroprotective use of triazolo-pyridazine derivatives” (Merck Sharp & Dohme, Ltd., priority 1997, dated 2000).

Columns and labels:
[1] = test system: selectively vulnerable neuronal populations in the gerbil forebrain; settings: gerbil forebrain ischemia model
[2] = test system: GABAA receptor subtypes containing the α1 and α3 or α5 subunits
[3] = test system: GABAA receptor subtypes containing the α1 and α3 or α5 subunits; settings: partial agonist at each of the α1, α3 or α5 containing receptors

C[C@@H]1CN(C(=O)c2cc3c(C(=O)OC(C)(C)C)ncn3c3ccc(Cl)cc23)C[C@H](C)N1 [PNU-101017]
neuronal survival [1]: dose-related increase in neuronal survival
affinity for GABAA receptor subtypes [2]: high affinity
intrinsic activity relative to the full agonist diazepam [3]: approximately 50%
